1 molecule from patent US7763287B2, “Extract of Cercis chinensis having anti-oxidant activity and anti-aging activity, and cosmetical composition containing the extract for anti-oxidation, skin-aging protection and wrinkle improvement” (Hankook Pharm. Co., Inc., priority 2002, dated 2010) can be followed below.

A short description of experiment [1]: Hydroxyl radical scavenging activity (deoxyribose/TBA, method of Halliwell). It counts as biochemical. The following applies: 10 μg of sample, total volume 1 ml. How it is done: Hydroxyl radical (HO.) is generated by the reaction of a metal ion or a superoxide radical. Owing to its strong reactivity, hydroxyl radical causes oxidative damages to DNA, protein and lipid in vivo. Nitric oxide (NO.) is reacted with a superoxide radical to generate a peroxy nitrite (ONOO—), also having strong reactivity. […] Particularly, each compound was mixed with 10 μg of a sample dissolved in DMSO, phosphate buffer (20 mM, pH 7.4) 5.6 mM deoxyribose, 0.1 mM FeCl3, 1 mM H2O2 and 0.1 mM ascorbic acid, making total volume 1 ml, which was then reacted at 37° C. for 60 minutes. 250 μl of 20% TCA and 250 μl of 1% TBA solution (dissolved in 50 mM NaOH) were added to the reaction solution, followed by thermal reaction at 95° C. for 5 minutes. After completing the reaction, OD532 was measured. Hydroxyl radical scavenging activity was calculated by the below
<Mathematical Formula 3>. BHA and α-tocopherol were used for a positive control. Hydroxyl Radical Scavenging Activity (%)=(Acontrol−Asample)/(Acontrol−Ablank)×100 <Mathematical Formula 3>
Acontrol: Optical density of control group well (sample was not added),
Asample: Optical density of experimental group well (sample was added),
Ablank: Optical density of well not added with sample, TCA and TBA

A short description of experiment [2]: Nitric oxide scavenging activity. It counts as biochemical.
The test system of experiment [3] is HEK-N/F cells. Put plainly: Protection of cells from oxidative damage induced by t-butylhydroperoxide. It counts as cell-based, human. Conditions: 1.5 mM t-butylhydroperoxide 3 hours. How it is done:
t-butylhydroperoxide is metabolized into a free radical intermediate as it comes in a cell, so that it causes lipid peroxidation, resulting in cell damage. This phenomenon is similar to that caused by oxidataive stress accumulated in cells and tissues. […] HEK-N/F, an epidermal cell line of a newborn baby, was treated with 1.5 mM of t-butylhydroxyperoxide for 3 hours.

The test system of experiment [4] is rat brain homogenates. Put plainly: Lipid peroxidation inhibitory activity (Fe2+/ascorbic acid, TBA method). Conditions: Table 4.

Take `O=c1c(O)c(-c2cc(O)c(O)c(O)c2)oc2cc(O)cc(O)c12` [Chemical Formula 9, myricetin]: the “Hydroxyl radical scavenging activity (%)” value in experiment [1] turned out to be 8.7%. Also, the “Nitric oxide scavenging activity (in words)” value in experiment [2] was “comparatively high nitric oxide scavenging activity”. For the same molecule, the “Cell survival rate (%)” value in experiment [3] is on record as 61.0±4.5%. Moreover, in experiment [3] (compound 50.0 µg/ml), the “TBARS (pmol/mg protein)” value came out at 810.7 ± 77.0 pmol/mg protein. The “Lipid Peroxidation Inhibitory Activity IC50” value in experiment [4] was 0.95 ± 0.06 µg/mL.
